{"source": "paper PMC3119665", "about": "“A New Drug Design Targeting the Adenosinergic System for Huntington's Disease” (PLoS ONE, 2011)", "key": {"Prostanoid EP2": {"biological_target": "T1, Prostanoid EP2 (Homo sapiens, UniProt P43116)", "T1 construct": "purchased MDS Pharma Services Taiwan", "T1 sequence (P43116 whole entry)": "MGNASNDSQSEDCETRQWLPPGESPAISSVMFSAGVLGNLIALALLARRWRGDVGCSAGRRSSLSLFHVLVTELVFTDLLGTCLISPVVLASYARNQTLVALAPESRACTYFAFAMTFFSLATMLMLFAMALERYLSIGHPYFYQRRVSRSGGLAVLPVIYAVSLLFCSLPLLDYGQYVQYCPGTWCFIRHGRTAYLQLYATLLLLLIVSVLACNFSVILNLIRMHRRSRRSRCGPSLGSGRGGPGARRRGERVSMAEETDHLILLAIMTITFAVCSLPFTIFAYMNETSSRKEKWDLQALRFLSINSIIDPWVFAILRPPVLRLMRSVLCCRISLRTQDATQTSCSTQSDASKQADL", "assay": "Radioligand binding panel (Table S1)", "details": "10 μM T1-11, n 2"}, "Sigma σ2": {"biological_target": "T2, Sigma σ2 (Rattus norvegicus, UniProt Q5U3Y7)", "T2 construct": "purchased MDS Pharma Services Taiwan", "T2 sequence (Q5U3Y7 whole entry)": "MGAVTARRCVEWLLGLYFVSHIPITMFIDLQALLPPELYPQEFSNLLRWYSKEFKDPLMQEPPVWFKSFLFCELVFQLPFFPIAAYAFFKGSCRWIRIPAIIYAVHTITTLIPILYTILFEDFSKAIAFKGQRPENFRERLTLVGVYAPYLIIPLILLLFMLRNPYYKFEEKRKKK", "assay": "Radioligand binding panel (Table S1)", "details": "10 μM T1-11, n 2"}, "Adrenergic α 2B": {"biological_target": "T3, Adrenergic α 2B (Homo sapiens, UniProt P18089)", "T3 construct": "purchased MDS Pharma Services Taiwan", "T3 sequence (P18089 whole entry)": "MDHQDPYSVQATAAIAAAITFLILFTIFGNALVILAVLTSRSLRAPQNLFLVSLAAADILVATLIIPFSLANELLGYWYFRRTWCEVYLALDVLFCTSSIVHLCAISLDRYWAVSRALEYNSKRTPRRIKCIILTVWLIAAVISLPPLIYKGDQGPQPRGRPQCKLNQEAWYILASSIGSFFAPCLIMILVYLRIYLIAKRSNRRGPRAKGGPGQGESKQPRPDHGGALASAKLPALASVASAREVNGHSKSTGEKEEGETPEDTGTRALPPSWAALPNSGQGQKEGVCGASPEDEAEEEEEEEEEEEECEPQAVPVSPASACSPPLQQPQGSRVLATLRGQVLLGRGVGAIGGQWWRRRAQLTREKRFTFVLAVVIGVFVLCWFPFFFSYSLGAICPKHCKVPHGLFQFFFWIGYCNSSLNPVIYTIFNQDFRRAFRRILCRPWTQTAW", "assay": "Radioligand binding panel (Table S1)", "details": "10 μM T1-11, n 2"}, "[1]": {"biological_target": "T4, Vasoactive Intestinal Peptide VIP1 (Homo sapiens, UniProt P32241)", "T4 construct": "purchased MDS Pharma Services Taiwan", "T4 sequence (P32241 31-457)": "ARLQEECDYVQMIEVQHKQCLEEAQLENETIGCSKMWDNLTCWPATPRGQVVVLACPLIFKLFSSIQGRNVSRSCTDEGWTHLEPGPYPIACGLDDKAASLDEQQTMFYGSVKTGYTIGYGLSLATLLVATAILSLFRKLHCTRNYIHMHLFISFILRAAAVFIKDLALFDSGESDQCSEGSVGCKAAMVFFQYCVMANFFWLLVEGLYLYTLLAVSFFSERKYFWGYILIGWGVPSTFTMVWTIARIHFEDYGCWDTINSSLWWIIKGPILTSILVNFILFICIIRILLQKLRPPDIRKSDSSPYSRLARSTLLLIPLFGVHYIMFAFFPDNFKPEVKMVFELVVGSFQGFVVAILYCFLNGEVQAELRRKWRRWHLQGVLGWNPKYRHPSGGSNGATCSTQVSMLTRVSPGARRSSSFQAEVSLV", "assay": "Radioligand binding panel (Table S1)", "details": "10 μM T1-11, n 2"}, "Phosphodiesterase PDE5": {"biological_target": "T5, Phosphodiesterase PDE5 (Homo sapiens, UniProt O76074)", "T5 construct": "purchased MDS Pharma Services Taiwan", "assay": "Radioligand binding panel (Table S1)", "details": "10 μM T1-11, n 2"}, "Cannabinoid CB2": {"biological_target": "T6, Cannabinoid CB2 (Homo sapiens, UniProt P34972)", "T6 construct": "purchased MDS Pharma Services Taiwan", "T6 sequence (P34972 whole entry)": "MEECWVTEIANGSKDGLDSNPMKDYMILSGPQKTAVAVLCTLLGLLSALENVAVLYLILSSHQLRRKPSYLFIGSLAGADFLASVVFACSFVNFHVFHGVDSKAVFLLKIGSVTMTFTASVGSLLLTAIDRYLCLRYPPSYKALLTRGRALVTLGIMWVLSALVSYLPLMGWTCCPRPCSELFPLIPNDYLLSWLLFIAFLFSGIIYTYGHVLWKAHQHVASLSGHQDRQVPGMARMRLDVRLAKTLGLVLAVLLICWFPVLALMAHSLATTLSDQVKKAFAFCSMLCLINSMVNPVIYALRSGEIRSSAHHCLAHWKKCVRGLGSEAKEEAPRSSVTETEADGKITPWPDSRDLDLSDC", "assay": "Radioligand binding panel (Table S1)", "details": "10 μM T1-11, n 2"}, "GABAA, Non-Selective": {"system": "GABAA, Non-Selective", "assay": "Radioligand binding panel (Table S1)", "set-up": "species or system rat", "details": "10 μM T1-11, n 2"}, "Estrogen ERβ": {"biological_target": "T7, Estrogen ERβ (Homo sapiens, UniProt Q92731)", "T7 construct": "purchased MDS Pharma Services Taiwan", "T7 sequence (Q92731 whole entry)": "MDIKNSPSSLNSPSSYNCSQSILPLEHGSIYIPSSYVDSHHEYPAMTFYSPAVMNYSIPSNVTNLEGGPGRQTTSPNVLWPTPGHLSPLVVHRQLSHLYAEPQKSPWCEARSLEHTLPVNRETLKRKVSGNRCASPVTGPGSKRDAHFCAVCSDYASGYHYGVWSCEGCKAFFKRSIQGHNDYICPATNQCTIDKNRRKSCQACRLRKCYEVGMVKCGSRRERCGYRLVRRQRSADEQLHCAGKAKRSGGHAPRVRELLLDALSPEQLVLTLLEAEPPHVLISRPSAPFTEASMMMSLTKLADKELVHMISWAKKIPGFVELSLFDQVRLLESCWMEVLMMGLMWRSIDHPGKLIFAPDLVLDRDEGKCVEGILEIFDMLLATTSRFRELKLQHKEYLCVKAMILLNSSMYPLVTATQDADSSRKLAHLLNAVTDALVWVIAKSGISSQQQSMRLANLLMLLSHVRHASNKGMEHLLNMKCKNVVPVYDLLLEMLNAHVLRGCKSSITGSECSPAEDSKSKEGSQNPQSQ", "assay": "Radioligand binding panel (Table S1)", "details": "10 μM T1-11, n 2"}, "[2]": {"system": "GABAA, Benzodiazepine, Central, Ro-15-1788", "assay": "Radioligand binding panel (Table S1)", "set-up": "species or system rat", "details": "10 μM T1-11, n 2"}, "PC12 cells": {"system": "PC12 cells", "assay": "Annexin V-FITC staining, serum-deprived PC12 cells", "type": "cell-based, rat", "details": "T1-11 10 µM, 24 h", "method": "An annexin V (FITC-conjugated) apoptosis kit (K101-400; BioVision, Mountain View, CA, USA) was used to analyze apoptotic cells. The experimental protocol followed the manufacturer's instructions and a previous article. In brief, after treatment with serum, serum-free medium, or serum-free medium plus T1-11 of the indicated concentration for 24 h, cells growing on 12-well plates at (3∼4)×10^5 cells/well were loaded with 0.5 ml binding buffer and 5 µl annexin V-FITC. After incubation for 5 min in the dark, cells were washed once with 1 ml of culture medium (without phenol red) for fluorescent imaging analyses (Axiovert-200M, Carl Zeiss, Gôttingen, Germany) or a flow cytometric analysis (Beckton Dickinson, Franklin Lakes, NJ, USA). Median values of the FITC fluorescent intensities were determined using an FL-1 channel (488/530Ex/Em nm). Five thousand live cells were analyzed per sample."}, "R6/2 mice": {"system": "R6/2 mice", "assay": "In vivo 3D MRI imaging of brain atrophy in R6/2 mice", "details": "0.05 mg/ml in drinking water, five weeks", "method": "Supplementary file pone.0020934.s005.tif: Figure S5 Effect of T1-11 on the shorten lifespan and enlarged ventricle of R6/2 mice. Animals were given the vehicle (1% DMSO; CON) or T1-11 (0.05 mg/ml)-containing drinking water from the age of 7 weeks. (A) Survival was assessed. Specific comparison to R6/2 mice treated with the vehicle (p = 0.306; Mantel-Cox test). (B) Five weeks after T1-11 treatment, 3D-lMRI was performed to determine the ventricle-to-brain ratio of the indicated animals as described. * p<0.05. (TIF) Click here for additional data file."}, "Transporter, Dopamine": {"biological_target": "T8, Transporter, Dopamine (Homo sapiens, UniProt Q01959)", "T8 construct": "purchased MDS Pharma Services Taiwan", "T8 sequence (Q01959 whole entry)": "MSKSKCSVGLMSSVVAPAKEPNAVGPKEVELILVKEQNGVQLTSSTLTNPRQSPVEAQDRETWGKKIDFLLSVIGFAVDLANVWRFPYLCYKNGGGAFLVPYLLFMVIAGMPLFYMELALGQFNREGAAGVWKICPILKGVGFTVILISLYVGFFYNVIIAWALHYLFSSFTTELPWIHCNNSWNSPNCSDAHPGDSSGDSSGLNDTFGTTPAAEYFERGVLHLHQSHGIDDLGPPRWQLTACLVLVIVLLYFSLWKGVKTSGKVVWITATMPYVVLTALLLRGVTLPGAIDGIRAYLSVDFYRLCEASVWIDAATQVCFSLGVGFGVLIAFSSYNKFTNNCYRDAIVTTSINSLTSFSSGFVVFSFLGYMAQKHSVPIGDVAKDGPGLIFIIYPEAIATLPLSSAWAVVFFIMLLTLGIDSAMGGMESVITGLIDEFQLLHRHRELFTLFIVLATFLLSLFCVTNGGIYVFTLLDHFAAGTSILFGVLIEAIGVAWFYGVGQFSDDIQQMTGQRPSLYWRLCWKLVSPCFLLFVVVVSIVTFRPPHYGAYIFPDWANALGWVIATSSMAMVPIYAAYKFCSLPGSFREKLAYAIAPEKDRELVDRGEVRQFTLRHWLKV", "assay": "Radioligand binding panel (Table S1)", "details": "10 μM T1-11, n 2"}, "Cyclooxygenase COX-2": {"biological_target": "T9, Cyclooxygenase COX-2 (Homo sapiens, UniProt P35354)", "T9 construct": "purchased MDS Pharma Services Taiwan", "T9 sequence (P35354 18-604)": "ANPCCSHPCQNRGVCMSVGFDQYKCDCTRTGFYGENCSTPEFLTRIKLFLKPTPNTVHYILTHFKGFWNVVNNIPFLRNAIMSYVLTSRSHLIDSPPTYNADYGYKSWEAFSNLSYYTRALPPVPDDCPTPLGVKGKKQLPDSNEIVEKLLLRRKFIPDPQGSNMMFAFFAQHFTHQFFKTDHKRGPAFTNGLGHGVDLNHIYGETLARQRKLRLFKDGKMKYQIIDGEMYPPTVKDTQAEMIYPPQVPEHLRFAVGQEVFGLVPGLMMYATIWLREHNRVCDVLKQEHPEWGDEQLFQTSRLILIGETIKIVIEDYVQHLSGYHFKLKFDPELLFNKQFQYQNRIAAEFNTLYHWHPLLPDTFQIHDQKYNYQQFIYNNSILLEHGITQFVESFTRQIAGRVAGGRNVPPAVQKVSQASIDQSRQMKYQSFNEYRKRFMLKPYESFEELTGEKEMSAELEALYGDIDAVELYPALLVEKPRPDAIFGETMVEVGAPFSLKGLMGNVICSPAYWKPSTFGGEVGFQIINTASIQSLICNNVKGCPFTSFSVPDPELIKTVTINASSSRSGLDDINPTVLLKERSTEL", "assay": "Radioligand binding panel (Table S1)", "details": "10 μM T1-11, n 2"}, "A2AR": {"biological_target": "T10, A2AR (Mus musculus, UniProt Q60613)", "T10 construct": "Brain tissues were carefully removed, and homogenized in 1 ml of assay buffer; from tissue; host or cells: brain of C57BL6 mice (in vivo dosing)", "T10 sequence (Q60613 whole entry)": "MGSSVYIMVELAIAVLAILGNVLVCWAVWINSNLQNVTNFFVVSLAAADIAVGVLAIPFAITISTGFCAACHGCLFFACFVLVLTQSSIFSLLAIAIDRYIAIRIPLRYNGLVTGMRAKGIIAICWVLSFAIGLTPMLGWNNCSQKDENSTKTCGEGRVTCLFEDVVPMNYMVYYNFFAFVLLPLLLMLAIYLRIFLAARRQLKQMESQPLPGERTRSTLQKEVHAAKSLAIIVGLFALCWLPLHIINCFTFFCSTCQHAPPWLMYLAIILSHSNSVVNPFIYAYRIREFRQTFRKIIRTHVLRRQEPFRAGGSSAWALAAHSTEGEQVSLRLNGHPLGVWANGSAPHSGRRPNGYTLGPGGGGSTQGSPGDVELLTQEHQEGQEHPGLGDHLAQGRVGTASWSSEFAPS", "assay": "cAMP level in the brain after intraperitoneal injection", "type": "in vivo", "details": "single intraperitoneal injection 5 mg/kg body weight, 60 min, wildtype and A2AR knockout mice", "method": "C57BL6 mice (8 weeks old) were intraperitoneally (i.p.) administrated with T1-11 (5 mg/kg body weight, n = 4) or vehicle for 60 min. Brain tissues were carefully removed, and homogenized in 1 ml of assay buffer (25 mM Tris (pH 8), 1 mM EGTA, 1 mM MgCl2, […], […], 10 nM okadaic acid, 1× EDTA free proteinase inhibitor cocktail (Roche), 0.5 mM IBMX, and […]). Trichloroacetic acid (6%, final concentration) was then added to the lysate to precipitate proteins. The cAMP level in the supernatant was analyzed as previously described."}, "Progesterone": {"system": "Progesterone", "assay": "Radioligand binding panel (Table S1)", "set-up": "species or system bovine", "details": "10 μM T1-11, n 2"}, "Glutamate, Kainate": {"system": "Glutamate, Kainate", "assay": "Radioligand binding panel (Table S1)", "set-up": "species or system rat", "details": "10 μM T1-11, n 2"}, "Phorbol Ester": {"system": "Phorbol Ester", "assay": "Radioligand binding panel (Table S1)", "set-up": "species or system mouse", "details": "10 μM T1-11, n 2"}, "BDNF": {"system": "BDNF", "assay": "Cortical BDNF transcript, quantitative RT-PCR", "type": "in vivo", "details": "R6/2 mice, 0.05 mg/ml in drinking water", "method": "Total RNA was isolated from the cortex of the indicated mice using the TriReagent kit (Molecular Research Center, Cincinnati, OH, USA), treated with RNase-free DNase (RQ1; Promega) to remove potential contamination by genomic DNA, and transcribed into complementary (c)DNA using Superscript* II reverse transcriptase. A real-time quantitative PCR was performed using a TaqMan kit (PE Applied Biosystems, Foster City, CA, USA) on a TaqMan ABI 7700 Sequence Detection System (PE Applied Biosystems) using heat-activated TaqDNA polymerase (Amplitaq Gold; PE Applied Biosystems). The PCR mixtures were incubated at 50°C for 2 min and 95°C for 10 min, and then 40 PCR cycles were conducted (95°C for 15 s and 65°C for 1 min). The sequences of primers are listed below: for BDNF (the target gene), 5′-[…]-3′ and 5′-[…]-3′; and for GAPDH (the reference gene), 5′[…]-3′ and 5′-[…]-3′. Independent reverse-transcription PCRs were performed using the same cDNA for both the indicated target gene and reference gene (GAPDH). […] Data were analyzed using ABI 7700 operating software to determine the threshold cycle (CT) above the background for each reaction. The relative transcript amount of the target gene, which was calculated using standard curves of serial RNA dilutions, was normalized to that of GAPDH of the same RNA."}}}
{"smiles": "OC[C@H]1O[C@@H](n2cnc3c(NCc4ccc(O)cc4)ncnc32)[C@H](O)[C@@H]1O", "note": "[T1-11, N ^6-(4-hydroxybenzyl)adenine riboside]", "values": [{"measurement": "inhibition at 10 µM", "setting": "Prostanoid EP2", "result": 10, "unit": "%"}, {"measurement": "inhibition at 10 µM", "setting": "Sigma σ2", "result": -3, "unit": "%"}, {"measurement": "inhibition at 10 µM", "setting": "Adrenergic α 2B", "result": 2, "unit": "%"}, {"measurement": "inhibition at 10 µM", "setting": "[1]", "result": 2, "unit": "%"}, {"measurement": "inhibition at 10 µM", "setting": "Phosphodiesterase PDE5", "result": 4, "unit": "%"}, {"measurement": "inhibition at 10 µM", "setting": "Cannabinoid CB2", "result": -2, "unit": "%"}, {"measurement": "% Inhibition", "setting": "GABAA, Non-Selective", "result": 5, "unit": "%"}, {"measurement": "inhibition at 10 µM", "setting": "Estrogen ERβ", "result": 40, "unit": "%"}, {"measurement": "% Inhibition", "setting": "[2]", "result": 1, "unit": "%"}, {"measurement": "Apoptosis (annexin V-FITC)", "setting": "PC12 cells", "result": "rescued serum-deprived PC12 cells from apoptosis"}, {"measurement": "Brain atrophy (3D MRI)", "setting": "R6/2 mice", "result": "slightly ameliorated the brain atrophy of R6/2 mice but the improvement did not reach statistic significance"}, {"measurement": "inhibition at 10 µM", "setting": "Transporter, Dopamine", "result": -6, "unit": "%"}, {"measurement": "inhibition at 10 µM", "setting": "Cyclooxygenase COX-2", "result": 0, "unit": "%"}, {"measurement": "cAMP levels in the brain", "setting": "A2AR", "result": "increased cAMP levels in the brains of wildtype, but not A2AR knockout"}, {"measurement": "% Inhibition", "setting": "Progesterone", "result": 9, "unit": "%"}, {"measurement": "% Inhibition", "setting": "Glutamate, Kainate", "result": 11, "unit": "%"}, {"measurement": "% Inhibition", "setting": "Phorbol Ester", "result": 9, "unit": "%"}, {"measurement": "Cortical BDNF", "setting": "BDNF", "result": "contained more cortical BDNF than R6/2 mice that received no treatment"}]}
